{"source": "the supplement of paper PMC10307832", "data": [{"compound": "COc1cccc2c1C(=O)c1c(O)c3c(c(O)c1C2=O)C[C@@](O)(C(=O)CO)C[C@@H]3O[C@H]1C[C@H](N)[C@H](O)[C@H](C)O1 [Doxorubicin] + C[C@@H](Oc1cc(-c2cnn(C3CCNCC3)c2)cnc1N)c1c(Cl)ccc(F)c1Cl [Crizotinib] (partner 1 µM)", "assay": "relative viability (nuclei count vs DMSO), 5 days (fraction); higher = more cells survive", "details": "first compound 0.01 µM", "how_it_was_run": "(§1)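 Five library-drug doses in √10 steps were combined with a fixed anchor-drug dose, or a single drug was given alone, by pin tool to lung cancer cell lines in 1536-well plates the day after seeding. Nuclei were stained and counted after 5 days. Relative viability is the nuclei count in treated wells over that in vehicle wells, taken as the median of duplicate plates.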", "values": [{"cell line": "IA-LM", "relative viability": 0.564}, {"cell line": "A549", "relative viability": 0.419}, {"cell line": "NCI-H1299", "relative viability": 0.939}, {"cell line": "CAL-12T", "relative viability": 0.566}, {"cell line": "NCI-H1563", "relative viability": 0.584}, {"cell line": "NCI-H1944", "relative viability": 1.03}, {"cell line": "NCI-H2170", "relative viability": 1.23}, {"cell line": "ABC-1", "relative viability": 0.804}, {"cell line": "SK-MES-1", "relative viability": 0.97}]}, {"compound": "COc1cccc2c1C(=O)c1c(O)c3c(c(O)c1C2=O)C[C@@](O)(C(=O)CO)C[C@@H]3O[C@H]1C[C@H](N)[C@H](O)[C@H](C)O1 [Doxorubicin] + C[C@@H](Oc1cc(-c2cnn(C3CCNCC3)c2)cnc1N)c1c(Cl)ccc(F)c1Cl [Crizotinib] (partner 1 µM)", "assay": "relative viability (nuclei count vs DMSO), 5 days (fraction); higher = more cells survive", "details": "first compound 0.03162 µM", "how_it_was_run": "as §1", "values": [{"cell line": "RERF-LC-KJ", "relative viability": 0.956}, {"cell line": "NCI-H1651", "relative viability": 0.836}, {"cell line": "EBC-1", "relative viability": 0.177}, {"cell line": "NCI-H1734", "relative viability": 0.517}, {"cell line": "NCI-H2009", "relative viability": 0.352}, {"cell line": "NCI-H596", "relative viability": 0.91}, {"cell line": "SK-LU-1", "relative viability": 0.472}, {"cell line": "SW 1573", "relative viability": 0.687}, {"cell line": "LCLC-97TM1", "relative viability": 0.344}, {"cell line": "NCI-H661", "relative viability": 1.02}, {"cell line": "NCI-H2228", "relative viability": 0.343}, {"cell line": "EMC-BAC-2", "relative viability": 0.674}, {"cell line": "NCI-H2087", "relative viability": 0.661}, {"cell line": "Calu-6", "relative viability": 0.229}, {"cell line": "HCC-44", "relative viability": 0.81}, {"cell line": "NCI-H1703", "relative viability": 0.179}, {"cell line": "NCI-H727", "relative viability": 0.677}, {"cell line": "LK-2", "relative viability": 0.227}, {"cell line": "NCI-H2126", "relative viability": 1.08}, {"cell line": "H3255", "relative viability": 0.608}, {"cell line": "COR-L23", "relative viability": 0.252}, {"cell line": "COR-L 105", "relative viability": 0.38}, {"cell line": "LC-2-ad", "relative viability": 0.416}, {"cell line": "LU99A", "relative viability": 0.417}, {"cell line": "NCI-H358", "relative viability": 0.202}, {"cell line": "IA-LM", "relative viability": 0.376}, {"cell line": "A549", "relative viability": 0.0759}, {"cell line": "NCI-H1299", "relative viability": 0.874}, {"cell line": "CAL-12T", "relative viability": 0.182}, {"cell line": "NCI-H1563", "relative viability": 0.522}, {"cell line": "NCI-H1944", "relative viability": 1}, {"cell line": "NCI-H2170", "relative viability": 1.03}, {"cell line": "ABC-1", "relative viability": 0.294}, {"cell line": "SK-MES-1", "relative viability": 0.871}]}, {"compound": "COc1cccc2c1C(=O)c1c(O)c3c(c(O)c1C2=O)C[C@@](O)(C(=O)CO)C[C@@H]3O[C@H]1C[C@H](N)[C@H](O)[C@H](C)O1 [Doxorubicin] + C[C@@H](Oc1cc(-c2cnn(C3CCNCC3)c2)cnc1N)c1c(Cl)ccc(F)c1Cl [Crizotinib] (partner 1 µM)", "assay": "relative viability (nuclei count vs DMSO), 5 days (fraction); higher = more cells survive", "details": "first compound 0.1 µM", "how_it_was_run": "as §1", "values": [{"cell line": "RERF-LC-KJ", "relative viability": 0.7}, {"cell line": "NCI-H1651", "relative viability": 0.871}, {"cell line": "EBC-1", "relative viability": 0.164}, {"cell line": "NCI-H1734", "relative viability": 0.588}, {"cell line": "NCI-H2009", "relative viability": 0.222}, {"cell line": "NCI-H596", "relative viability": 0.933}, {"cell line": "SK-LU-1", "relative viability": 0.32}, {"cell line": "SW 1573", "relative viability": 0.69}, {"cell line": "LCLC-97TM1", "relative viability": 0.371}, {"cell line": "NCI-H661", "relative viability": 0.993}, {"cell line": "NCI-H2228", "relative viability": 0.197}, {"cell line": "EMC-BAC-2", "relative viability": 0.692}, {"cell line": "NCI-H2087", "relative viability": 0.666}, {"cell line": "Calu-6", "relative viability": 0.171}, {"cell line": "HCC-44", "relative viability": 0.785}, {"cell line": "NCI-H1703", "relative viability": 0.0887}, {"cell line": "NCI-H727", "relative viability": 0.578}, {"cell line": "LK-2", "relative viability": 0.272}, {"cell line": "NCI-H2126", "relative viability": 1.05}, {"cell line": "H3255", "relative viability": 0.45}, {"cell line": "COR-L23", "relative viability": 0.0977}, {"cell line": "COR-L 105", "relative viability": 0.248}, {"cell line": "LC-2-ad", "relative viability": 0.389}, {"cell line": "LU99A", "relative viability": 0.46}, {"cell line": "NCI-H358", "relative viability": 0.0991}, {"cell line": "IA-LM", "relative viability": 0.113}, {"cell line": "A549", "relative viability": 0.0405}, {"cell line": "NCI-H1299", "relative viability": 0.49}, {"cell line": "CAL-12T", "relative viability": 0.116}, {"cell line": "NCI-H1563", "relative viability": 0.447}, {"cell line": "NCI-H1944", "relative viability": 1.14}, {"cell line": "NCI-H2170", "relative viability": 1.32}, {"cell line": "ABC-1", "relative viability": 0.209}, {"cell line": "SK-MES-1", "relative viability": 0.865}]}, {"compound": "COC1=C(C=C(C=C1)C2=CC3=NC=CN3C(=N2)NC4=C(C=CC=N4)C(=O)N)OC [BAY61-3606] + CC(=O)Nc1cccc(-n2c(=O)n(C3CC3)c(=O)c3c(Nc4ccc(I)cc4F)n(C)c(=O)c(C)c32)c1 [Trametinib] (partner 0.02 µM)", "assay": "relative viability (nuclei count vs DMSO), 5 days (fraction); higher = more cells survive", "details": "first compound 0.02 µM", "how_it_was_run": "as §1", "values": [{"cell line": "NCI-H2342", "relative viability": 0.899}]}]}
